Test results published in patent US20240050447A1 (Propella Therapeutics, Inc., priority 2020, published 2024).
Values joined by “and” are separate entries in the source; they are usually repeats but may differ in a detail not shown here. Equal entries are not always repeated. Where two headings read alike, the source gives them in different places. Blank lines part the entries; values can stand above or below the molecule they belong to.

Key:
in vivo [1] = conditions: Beagle, dog; for half-life: iv
in vivo [2] = conditions: male, cynomolgus monkey, plasma
in vivo [3] = conditions: male, rat, plasma
in vivo [4] = conditions: male, beagle, dog, plasma; for AUC(0-inf): dogs
[5] = PK of single IM abiraterone decanoate (and oral abiraterone acetate) in chemically castrated monkeys (Example 10); conditions: abiraterone in plasma
[6] = dogs (N=3); Group 2: IM 77 mg/kg abiraterone isocaproate, 158 mg/ml in 90% corn oil/10% benzyl alcohol; plasma analyte = label; mean
[7] = male, rat, in vivo, im
[8] = dog, in vivo
[9] = human
in vivo [10] = conditions: rat, plasma, intramuscular, 90 mg/kg
in vivo [11] = conditions: dog, plasma, intramuscular
in vivo [12] = conditions: monkey, plasma, intramuscular, 90 mg/kg
[13] = PK modelling and deconvolution of abiraterone plasma profiles, rats (Example 7D)
[14] = PK modelling and deconvolution of abiraterone plasma profiles, dogs (Example 7D)
[15] = PK modelling and deconvolution of abiraterone plasma profiles, monkeys (Example 7D)
[16] = Allometric scaling and prediction of plasma profile of abiraterone in man (Example 7D)
[17] = Plasma PK in rats after IM injection of abiraterone or abiraterone acetate formulations (Example 5A); conditions: male, rat, group mean
[18] = single IM 10 mg/kg, Geometric Mean (N=3)
[19] = single IM 10 mg/kg, Median (N=3)
[20] = single IM 10 mg/kg, individual animals
[21] = single IM 30 mg/kg, Geometric Mean (N=3)
[22] = single IM 30 mg/kg, Median (N=3)
[23] = single IM 30 mg/kg, individual animals
[24] = single IM 100 mg/kg, Mean (N=3)
[25] = single IM 100 mg/kg, Median (N=3)
[26] = single IM 100 mg/kg, individual animals
[27] = Group 3: IM abiraterone suspension in castor oil (62.5 mg/ml)
[28] = Group 4: IM abiraterone suspension, sodium phosphate buffer, 0.1% Tween (62.5 mg/ml)

Tmax (in vivo [1]; im, mean decanoate Tmax, range between the two IM formulations): 2.64 to 6.24 h | half-life (in vivo [1]; […]): 0.86 h | half-life (in vivo [2]; im, 90 mg/kg): 240 h | half-life (in vivo [2]; iv, […]): 2.27 h | half-life (in vivo [3]; im, 90 mg/kg): 792 h | half-life (in vivo [3]; iv, […]): 3.2 h | CL/F (in vivo [4]; im, 87 mg/kg): 12.4 L/h/kg | Vd/F (in vivo [4]; im, 87 mg/kg): 2850 L/kg | half-life (in vivo [4]; im, 87 mg/kg): 161 h | AUC0-t [5, 18]: 196 ng·days/mL | AUC0-∞ [5, 18]: 209 ng·days/mL | AUC0-t ([5]; single IM 10 mg/kg, Max (N=3)): 225 ng·days/mL | AUC0-∞ ([5]; single IM 10 mg/kg, Max (N=3)): 236 ng·days/mL | AUC0-t ([5]; single IM 10 mg/kg, Mean (N=3)): 198 ng·days/mL | AUC0-∞ ([5]; single IM 10 mg/kg, Mean (N=3)): 212 ng·days/mL | AUC0-t [5, 19]: 212 ng·days/mL | AUC0-∞ [5, 19]: 235 ng·days/mL | AUC0-t ([5]; single IM 10 mg/kg, Min (N=3)): 157 ng·days/mL | AUC0-∞ ([5]; single IM 10 mg/kg, Min (N=3)): 166 ng·days/mL | AUC0-t [5, 21]: 330 ng·days/mL | AUC0-∞ [5, 21]: 347 ng·days/mL | AUC0-t ([5]; single IM 30 mg/kg, Max (N=3)): 449 ng·days/mL | AUC0-∞ ([5]; single IM 30 mg/kg, Max (N=3)): 492 ng·days/mL | AUC0-t ([5]; single IM 30 mg/kg, Mean (N=3)): 338 ng·days/mL | AUC0-∞ ([5]; single IM 30 mg/kg, Mean (N=3)): 358 ng·days/mL | AUC0-t [5, 22]: 285 ng·days/mL | AUC0-∞ [5, 22]: 293 ng·days/mL | AUC0-t ([5]; single IM 30 mg/kg, Min (N=3)): 281 ng·days/mL | AUC0-∞ ([5]; single IM 30 mg/kg, Min (N=3)): 290 ng·days/mL | AUC0-t ([5]; single IM 100 mg/kg, Max (N=3)): 1760 ng·days/mL | AUC0-∞ ([5]; single IM 100 mg/kg, Max (N=3)): 1770 ng·days/mL | AUC0-t [5, 24]: 1410 ng·days/mL | AUC0-∞ [5, 24]: 1430 ng·days/mL | AUC0-t [5, 25]: 1270 ng·days/mL | AUC0-∞ [5, 25]: 1330 ng·days/mL | AUC0-t ([5]; single IM 100 mg/kg, Min (N=3)): 1200 ng·days/mL | AUC0-∞ ([5]; single IM 100 mg/kg, Min (N=3)): 1200 ng·days/mL
Compound: CCCCCCCCCC(=O)O[C@H]1CC[C@@]2(C)C(=CC[C@@H]3[C@@H]2CC[C@]2(C)C(c4cccnc4)=CC[C@@H]32)C1 [Abiraterone Decanoate, Abiraterone decanoate]
AUC0-t [5, 20]: 225 ng·days/mL and 157 ng·days/mL and 212 ng·days/mL | AUC0-∞ [5, 20]: 235 ng·days/mL and 166 ng·days/mL and 236 ng·days/mL | AUC0-t [5, 23]: 281 ng·days/mL and 285 ng·days/mL and 449 ng·days/mL | AUC0-∞ [5, 23]: 293 ng·days/mL and 290 ng·days/mL and 492 ng·days/mL | AUC0-t [5, 26]: 1270 ng·days/mL and 1200 ng·days/mL and 1760 ng·days/mL | AUC0-∞ [5, 26]: 1330 ng·days/mL and 1200 ng·days/mL and 1770 ng·days/mL

Compound: CC(C)CCC(=O)O[C@H]1CC[C@@]2(C)C(=CC[C@@H]3[C@@H]2CC[C@]2(C)C(c4cccnc4)=CC[C@@H]32)C1 [Abiraterone Isocaproate, Abiraterone isocaproate]
Cmax [6]: 0.106 µg/mL

Compound: CC(=O)O[C@H]1CC[C@@]2(C)C(=CC[C@@H]3[C@@H]2CC[C@]2(C)C(c4cccnc4)=CC[C@@H]32)C1 [Abiraterone acetate, (3β)-17-(3-Pyridyl)androsta-5, acetate]
Tmax [7]: 8.00 h | AUClast ([7]; 35 mg/kg): 0.934 µg·h/mL | Cmax ([7]; 35 mg/kg): 0.0216 µg/mL | Tmax ([7]; 35 mg/kg): 39.2 h | injection site tolerability [8]: irritating to the dogs at the injection site | AUCINF ([8]; iv, 10 mg/kg): 5.99 µg·h/mL | AUCINF/Dose ([8]; iv, 10 mg/kg): 599 | AUClast ([8]; iv, 10 mg/kg): 5.92 µg·h/mL | AUClast/Dose ([8]; iv, 10 mg/kg): 592 | time out to which blood levels were measurable ([8]; male): 504 h

Compound: C[C@]12CC[C@H](O)CC1=CC[C@@H]1[C@@H]2CC[C@]2(C)C(c3cccnc3)=CC[C@@H]12 [Abiraterone, (3β)-17-(pyridin-3-yl)androsta-5,16-dien-3-ol]
t1/2 (absorption half-life), predicted in man [9]: 325 h | AUCINF [6]: 275 ng·days/mL | AUClast [6]: 266 ng·days/mL | t1/2 [6]: 223 h | bioavailability (in vivo [1]; im, absolute bioavailability for abiraterone): 72% | AUC(0-inf) (in vivo [1]; im, mean abiraterone AUCINF after IM, corrected for dose and time units): 0.104 µg·h/mL | half-life (in vivo [1]; 1 mg/kg, mean t1/2): 2.1 h | half-life (in vivo [10]): 325 h | half-life (in vivo [11]): 319 h | half-life (in vivo [12]): 325 h | AUC(0-inf) (in vivo [4]; im, 60 mg/kg, mean abiraterone AUCINF after IM, corrected for dose and time units, 60 mg/kg IM administration (abiraterone decanoate)): 0.0704 µg·h/mL | AUC(0-inf) (in vivo [4]; im, 60 mg/kg, mean abiraterone AUCINF after IM, corrected for dose and time units, 60 mg/kg IM administration of abiraterone isocaproate): 0.114 µg·h/mL | bioavailability (in vivo [4]; im, 77 mg/kg): 87% | half-life (in vivo [4]; im, 77 mg/kg, t1/2, dogs (N=3), Group 2: IM 77 mg/kg abiraterone isocaproate, 158 mg/ml in 90% corn oil/10% benzyl alcohol, plasma analyte = label, mean): 223 h | bioavailability (in vivo [4]; im, 87 mg/kg): 42% | AUC(0-inf) (in vivo [4]; iv, 0.78 mg/kg, mean abiraterone AUCINF after IV, corrected for dose, IV abiraterone isocaproate (0.78 mg/kg as abiraterone)): 0.131 µg·h/mL | F ([13]; Rats, IM bioavailability of abiraterone from abiraterone decanoate, deconvolution): 19% | Vd ([13]; rat, plasma, iv, […]): 22.3 L/kg | clearance ([13]; rat, plasma, iv, […]): 11.4 L/h/kg | F ([14]; Dogs, IM bioavailability of abiraterone from abiraterone decanoate, deconvolution): 56% | Vd ([14]; dog, plasma, iv, […]): 14.2 L/kg | clearance ([14]; dog, plasma, iv, […]): 6.47 L/h/kg | F ([15]; Monkeys, IM bioavailability of abiraterone from abiraterone decanoate, deconvolution): 14% | Vd ([15]; monkey, plasma, iv, […]): 5.73 L/kg | clearance ([15]; monkey, plasma, iv, […]): 2.58 L/h/kg | Vss, predicted in man ([16]; allometric scaling from rats, dogs and monkeys): 437 L | K01, predicted in man ([16]; from deconvolution of animal IM/IV data): 0.00213 h⁻¹ | F, predicted in man ([16]; value of dogs used): 56% | Cmax [17, 27]: 0.0133 µg/mL | Cmax [17, 28]: 0.00143 µg/mL | Tmax [17, 27]: 2.6 h | Tmax [17, 28]: 1.67 h
